According to patent US20090181986A1, “SUBSTITUTED HETEROCYCLIC COMPOUNDS” (priority 2007, published 2009):

Columns and labels:
[1] = molecular target: wild-type human cardiac sodium channel, hNav1.5 (Homo sapiens, UniProt Q14524); experiment: Late INa screening assay (PatchXpress whole cell patch clamp, late current generated with Tefluthrin or ATX II); type: cell-based; details: test compound at 10 μM; for inhibition at 10 µM: read-out: Late INa % blk
Protocol: The late sodium current (Late INa) and peak sodium current (Peak INa) assays are performed on an automated electrophysiology platform, PatchXpress 7000A (MDS Analytical Technologies, Sunnyvale, Calif.), which uses the whole cell patch clump technique to measure currents through the cell membrane of up to 16 cells at a time. The assay uses an HEK293 (human embryonic kidney) cell line heterologously expressing the wild-type human cardiac sodium channel, hNav1.5, purchased from Millipore (Billerica, Mass.). No beta subunits were coexpressed with the Na channel alpha subunit. […] Experiments are carried out at 24-27° C.
For both the Late INa and Peak INa assays, series resistance compensation is set to 50% and whole-cell compensation is performed automatically. […] Currents through open sodium channels are automatically recorded and stored in the DataXpress2 database (MDS Analytical Technologies, Sunnyvale, Calif.). Analysis is performed using DataXpress2 analysis software and data are compiled in Excel.
Compound stocks are routinely made in glass vials to 10 mM in dimethyl sulfoxide (DMSO). In some cases, when compounds are not soluble in DMSO, they are made in 100% ethanol. Stocks are sonicated as necessary. The extracellular solution for screening Late INa is composed of: 140 mM NaCl, 4 mM KCl, 1.8 mM CaCl2, 0.75 mM MgCl2, and 5 mM HEPES with pH adjusted to 7.4 using NaOH. The extracellular solution for screening Peak INa is composed of: 20 mM NaCl, 120 mM N-methyl-D glucamine, 4 mM KCl, 1.8 mM CaCl2, 0.75 mM MgCl2, and 5 mM HEPES with pH adjusted to 7.4 using HCl. The intracellular solution used to perfuse the inside of the cells for both the Late INa and Peak INa assays contains: 120 mM CsF, […], 5 mM EGTA, 5 mM HEPES and pH adjusted to 7.4 with CsOH. […] The ONa extracellular solution used at the end of each experiment for the Late INa and Peak INa assays to measure baseline current contains: 140 mM N-methyl-D-glucamine; 4 mM KCl; 1.8 mM CaCl2; 0.75 mM MgCl2; 5 mM HEPES and pH was adjusted to 7.4 with HCl.
For the Late INa assay, sodium channels are activated every 10 seconds (0.1 Hz) by depolarizing the cell membrane to −20 mV for 250 milliseconds (ms) from a holding potential of −120 mV.
All compounds are tested to determine their activity in blocking the late sodium current. Late INa current is generated by adding 10 μM Tefluthrin (pyrethroid) to the extracellular solution while recording Na currents. […] For some experiments, 50 nM ATX II (sea anemone toxin), another late INa activator, was used to generate the late component. […] Baseline current in the absence of Na^+ ions is measured at the end of each experiment (after two additions of 0 Na solution—see above) and is used to calculate the percent block by compound.

L-type calcium channel = L-type calcium channel activity well-plate assay (IMR-32 cells, Ca-4 dye, FlexStation); type: cell-based, human
Protocol: Cell Culture: IMR-32 (human neuroblastoma) cells were obtained from The American Type Culture Collection. The cells were maintained in MEM supplemented with 10% fetal bovine serum, 2 mM of L-glutamine, 100 IU/ml of penicillin, 50 μg/ml of streptomycin, 1% of sodium pyruvate, 1% of sodium bicarbonate and 1% of non-essential amino acid. […] Culture medium was changed every two days and cells were recultivated when they reached 70-80% confluent.
Assay: IMR-32 cells were seeded on a Microtest 96-well Assay Plate (BD FALCON™) at a density of 200,000 cells/well in 200 μl culture medium for overnight. The culture medium was removed, and replaced by 120 μl Ca-4 dye (MDS Analytical Technologies, Sunnyvale, Calif.) in HBSS (1× Hank's Balanced Salt solution plus 20 mM HEPES, pH 7.4) containing 2 mM probenecid. Cells were then incubated for 1 hour at 37° in incubator. Testing compounds were diluted from 5 μM-50 μM in HBSS, and 40 μl were added in cells before assay. […] The inhibition of L-type calcium channel activity by compounds was then calculated.

hERG potassium channel = hERG potassium channel (Homo sapiens, UniProt Q12809); experiment: hERG screening assay (PatchXpress patch clamp, CHO cells)
Chain of hERG potassium channel (Q12809 whole entry): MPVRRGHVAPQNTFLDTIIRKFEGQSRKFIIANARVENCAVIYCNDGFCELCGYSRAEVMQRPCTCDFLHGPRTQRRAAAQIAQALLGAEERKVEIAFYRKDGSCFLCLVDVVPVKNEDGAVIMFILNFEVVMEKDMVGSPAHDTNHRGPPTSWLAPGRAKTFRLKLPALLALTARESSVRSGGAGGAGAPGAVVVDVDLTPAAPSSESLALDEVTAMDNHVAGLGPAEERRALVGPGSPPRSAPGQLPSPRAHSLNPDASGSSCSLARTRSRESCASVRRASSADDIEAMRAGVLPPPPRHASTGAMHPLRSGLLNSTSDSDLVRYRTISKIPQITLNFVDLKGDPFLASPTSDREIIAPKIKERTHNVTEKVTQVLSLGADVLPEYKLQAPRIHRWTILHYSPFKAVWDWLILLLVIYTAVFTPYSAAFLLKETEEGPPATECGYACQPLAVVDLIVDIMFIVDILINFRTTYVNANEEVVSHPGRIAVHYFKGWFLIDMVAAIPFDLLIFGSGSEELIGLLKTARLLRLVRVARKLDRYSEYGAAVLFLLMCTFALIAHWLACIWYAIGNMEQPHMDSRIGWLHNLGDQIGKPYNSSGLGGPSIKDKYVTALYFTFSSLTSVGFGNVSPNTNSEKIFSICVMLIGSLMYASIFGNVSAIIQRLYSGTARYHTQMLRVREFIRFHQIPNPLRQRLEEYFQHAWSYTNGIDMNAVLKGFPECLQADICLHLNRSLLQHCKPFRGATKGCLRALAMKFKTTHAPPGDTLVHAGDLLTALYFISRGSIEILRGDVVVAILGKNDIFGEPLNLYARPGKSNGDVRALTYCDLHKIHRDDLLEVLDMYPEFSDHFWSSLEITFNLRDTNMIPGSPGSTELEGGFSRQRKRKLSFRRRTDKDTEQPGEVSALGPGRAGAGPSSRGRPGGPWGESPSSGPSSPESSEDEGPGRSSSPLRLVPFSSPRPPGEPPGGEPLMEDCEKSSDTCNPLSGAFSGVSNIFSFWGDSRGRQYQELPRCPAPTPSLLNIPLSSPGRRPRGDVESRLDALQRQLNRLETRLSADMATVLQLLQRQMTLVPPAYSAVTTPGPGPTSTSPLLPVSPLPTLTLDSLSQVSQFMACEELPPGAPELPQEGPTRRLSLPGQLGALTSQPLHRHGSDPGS
Protocol: Compounds were screened to test their activity in blocking the hERG potassium channel. The hERG channel is heterologously expressed in a CHO (Chinese Hamster Ovary) cell line. Cells are maintained with standard tissue culture procedures and stable channel expression is maintained with 500 μg/ml G418 in the culture medium. Cells are harvested for testing on the PatchXpress automated patch clamp with Acctumax (Innovative Cell Technologies, San Diego, Calif.) to isolate single cells.
The following solutions are used for electrophysiological recordings. The external solution contains: 2 mM CaCl2; 2 mM MgCl2; 4 mM KCl; 150 mM NaCl; 10 mM Glucose; 10 mM HEPES (pH 7.4 with 1M NaOH, osmolarity).
hERG channels are activated when the voltage is stepped to +20 mV from the −80 mV holding potential (see FIG. 3). During a 5 second step at +20 mV, the channels activate and then largely inactivate, so the currents are relatively small. Upon returning to −50 mV from +20 mV, hERG currents transiently become much larger as inactivation is rapidly removed and then the channel closes. The first step to −50 mV for 300 ms is used as a baseline for measuring the peak amplitude during the step to −50 mV after channel activation. The peak current at −50 mV is measured both under control conditions and after addition of compound.
All compounds are prepared as 10 mM DMSO stocks in glass vials. Stock solutions are mixed by vigorous vortexing and sonication for about 2 minutes at room temperature. For testing, compounds are diluted in glass vials using an intermediate dilution step in pure DMSO and then further diluted to working concentrations in external solution. Dilutions are prepared no longer than 20 minutes before use.
After achieving the whole-cell configuration, cells are monitored for 90 seconds to assess stability and washed with external solution for 66 seconds. The voltage protocol described above is then applied to the cells every 12 seconds and throughout the whole procedure. Only cells with stable recording parameters and meeting specified health criteria are allowed to enter the compound addition procedure.
External solution containing 0.1% DMSO (vehicle) is applied to the cells first to establish the control peak current amplitude. After allowing the current to stabilize for 3 to 5 minutes, 1 μM and then 10 μM test compounds are applied. Each compound concentration is added 4 times and cells are kept in test solution until the effect of the compound reaches steady state or for a maximum of 12 minutes. […] Washout in the external solution compartment is performed until the recovery of the current reaches steady state. Data are analyzed using DataXpress, Clampfit (Molecular Devices, Inc., Sunnyvale) and Origin 7 (Originlab Corp.)

Chain of wild-type human cardiac sodium channel, hNav1.5 (Q14524 whole entry): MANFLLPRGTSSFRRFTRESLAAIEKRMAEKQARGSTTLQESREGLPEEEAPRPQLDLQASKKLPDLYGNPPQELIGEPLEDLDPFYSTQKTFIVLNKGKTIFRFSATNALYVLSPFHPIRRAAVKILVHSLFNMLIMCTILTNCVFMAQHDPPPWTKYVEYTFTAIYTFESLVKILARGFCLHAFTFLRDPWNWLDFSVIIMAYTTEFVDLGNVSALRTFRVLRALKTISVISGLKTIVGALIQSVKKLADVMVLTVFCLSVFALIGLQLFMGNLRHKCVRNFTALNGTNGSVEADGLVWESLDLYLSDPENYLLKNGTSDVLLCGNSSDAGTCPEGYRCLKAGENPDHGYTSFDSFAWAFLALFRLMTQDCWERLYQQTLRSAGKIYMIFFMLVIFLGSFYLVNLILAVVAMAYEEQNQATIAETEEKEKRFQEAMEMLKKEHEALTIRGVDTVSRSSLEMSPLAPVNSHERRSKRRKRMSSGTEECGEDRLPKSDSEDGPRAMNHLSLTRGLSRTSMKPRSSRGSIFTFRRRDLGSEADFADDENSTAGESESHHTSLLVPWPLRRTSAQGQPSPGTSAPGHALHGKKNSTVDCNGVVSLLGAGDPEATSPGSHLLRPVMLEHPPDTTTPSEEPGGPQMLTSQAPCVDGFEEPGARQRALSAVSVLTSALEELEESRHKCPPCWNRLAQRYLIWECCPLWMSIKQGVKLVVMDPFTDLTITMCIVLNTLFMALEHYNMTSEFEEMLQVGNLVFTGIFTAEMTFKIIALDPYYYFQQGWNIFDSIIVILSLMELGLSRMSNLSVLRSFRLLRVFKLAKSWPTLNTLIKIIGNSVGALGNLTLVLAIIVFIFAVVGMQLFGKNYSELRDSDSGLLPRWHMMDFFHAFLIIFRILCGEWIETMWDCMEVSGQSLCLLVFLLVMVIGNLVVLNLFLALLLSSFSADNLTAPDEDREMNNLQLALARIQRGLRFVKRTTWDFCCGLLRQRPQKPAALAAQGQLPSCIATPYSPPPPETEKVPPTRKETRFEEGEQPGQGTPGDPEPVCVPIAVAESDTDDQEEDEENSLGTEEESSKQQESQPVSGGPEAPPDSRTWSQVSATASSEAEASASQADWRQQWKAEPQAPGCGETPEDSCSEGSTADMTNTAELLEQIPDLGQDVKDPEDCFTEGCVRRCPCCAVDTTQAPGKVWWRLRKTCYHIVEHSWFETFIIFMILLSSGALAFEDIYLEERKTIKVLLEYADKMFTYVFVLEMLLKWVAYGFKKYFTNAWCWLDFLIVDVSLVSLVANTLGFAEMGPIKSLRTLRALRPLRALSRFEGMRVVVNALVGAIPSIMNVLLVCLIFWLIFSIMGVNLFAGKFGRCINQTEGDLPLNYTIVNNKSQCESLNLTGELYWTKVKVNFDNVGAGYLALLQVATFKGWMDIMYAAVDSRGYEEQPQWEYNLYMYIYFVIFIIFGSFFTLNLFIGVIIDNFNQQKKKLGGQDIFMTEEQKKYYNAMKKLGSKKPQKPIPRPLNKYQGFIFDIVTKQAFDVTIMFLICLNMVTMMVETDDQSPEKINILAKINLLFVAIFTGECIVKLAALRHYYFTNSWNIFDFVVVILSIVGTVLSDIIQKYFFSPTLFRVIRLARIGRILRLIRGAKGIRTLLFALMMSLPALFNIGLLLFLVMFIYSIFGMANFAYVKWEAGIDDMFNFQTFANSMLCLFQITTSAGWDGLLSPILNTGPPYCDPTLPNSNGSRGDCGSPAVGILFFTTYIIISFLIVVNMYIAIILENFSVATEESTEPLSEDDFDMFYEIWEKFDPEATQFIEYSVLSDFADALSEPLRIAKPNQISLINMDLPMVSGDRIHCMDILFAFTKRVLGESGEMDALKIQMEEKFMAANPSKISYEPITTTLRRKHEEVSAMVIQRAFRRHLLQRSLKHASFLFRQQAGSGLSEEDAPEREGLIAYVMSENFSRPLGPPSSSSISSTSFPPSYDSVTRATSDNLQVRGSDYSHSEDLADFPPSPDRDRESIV

Compound	inhibition at 10 µM [1]	Late INa % blk [1]	CaL Plate Assay % blk (1 μM test cmpd) (L-type calcium channel)	CaL Plate Assay % blk (10 μM test cmpd) (L-type calcium channel)	hERG Patch Clamp hERG % blk (1 μM test cmpd) (hERG potassium channel)	hERG Patch Clamp hERG % blk (10 μM test cmpd) (hERG potassium channel)
COC(=O)C1=C(C)Nc2nnnn2C1c1ccccc1 (stereo not drawn) [PT-514, methyl 5-methyl-7-phenyl-4,7-dihydrotetrazolo[1,5-a]pyrimidine-6-carboxylate]	6%	–	–	–	–	–
CC1=C(C(=O)OCc2ccccc2Br)C(c2c(Cl)cccc2Cl)n2nnnc2N1 (stereo not drawn) [PT-531, 2-bromobenzyl 7-(2,6-dichlorophenyl)-5-methyl-4,7-dihydrotetrazolo[1,5-a]pyrimidine-6-carboxylate]	51.2%	–	–	–	–	–
CC1=C(C(=O)OC(C)C)C(c2c[nH]nc2-c2ccc(F)cc2)C(C(=O)OC(C)C)=C(C)N1 [PT-128, diisopropyl 4-(3-(4-fluorophenyl)-1H-pyrazol-4-yl)-2,6-dimethyl-1,4-dihydropyridine-3,5-dicarboxylate]	34.1%	–	–	–	–	–
CC1=C(C(=O)Nc2c(C)cccc2C)C(c2ccsc2)C2=C(CCCC2=O)N1 (stereo not drawn) [PT-180, N-(2,6-dimethylphenyl)-2-methyl-5-oxo-4-(thiophen-3-yl)-1,4,5,6,7,8-hexahydroquinoline-3-carboxamide]	-4.7%	–	–	–	–	–
COC(=O)c1ccc(C2CCN(C(=O)C3=C(C)NC4=C(C(=O)CCC4)C3c3cccc4ccccc34)CC2)cc1 (stereo not drawn) [PT-535, methyl 4-(1-(2-methyl-4-(naphthalen-1-yl)-5-oxo-1,4,5,6,7,8-hexahydroquinoline-3-carbonyl)piperidin-4-yl)benzoate]	4.2%	–	–	–	–	–
2-methyl-1-phenylpropan-2-yl 5-methyl-7-(naphthalen-1-yl)-4,7-dihydrotetrazolo[1,5-a]pyrimidine-6- [PT-264]	–	53.5%	–	–	–	–
CC1=C(C(=O)O[C@@H](C)c2ccccc2)C(c2cc3ccccc3s2)n2nnnc2N1 (stereo partly drawn) [PT-056, (S)-1-phenylethyl 7-(benzo[b]thiophen-2-yl)-5-methyl-4,7-dihydrotetrazolo[1,5-a]pyrimidine-6-carboxylate]	–	7.8%	–	–	–	–
CC1=C(C(=O)N2CCC(c3ccc(C(N)=O)cc3)CC2)C(c2cccc3ccccc23)C2=C(CCCC2=O)N1 (stereo not drawn) [PT-287, 4-(1-(2-methyl-4-(naphthalen-1-yl)-5-oxo-1,4,5,6,7,8-hexahydroquinoline-3-carbonyl)piperidin-4-yl)benzamide]	8.6%	–	–	–	–	–
CC1=C(C(=O)OCc2ccccc2Br)C(c2c(Cl)cccc2Cl)n2nnnc2N1Cc1nnn[nH]1 (stereo not drawn) [PT-532, 2-bromobenzyl 4-((1H-tetrazol-5-yl)methyl)-7-(2,6-dichlorophenyl)-5-methyl-4,7-dihydrotetrazolo[1,5-a]pyrimidine-6-carboxylate]	35.6%	–	–	–	–	–
COC(=O)C1=C(C)N(Cc2nnn[nH]2)c2nnnn2C1c1sc2ccccc2c1Br (stereo not drawn) [PT-534, methyl 4-((1H-tetrazol-5-yl)methyl)-7-(3-bromobenzo[b]thiophen-2-yl)-5-methyl-4,7-dihydrotetrazolo[1,5-a]pyrimidine-6-carboxylate]	18.2%	–	–	–	–	–
CCOC(=O)C1=C(C)Nc2nnnn2C1c1ccc2ccccc2c1 (stereo not drawn) [PT-008, ethyl 5-methyl-7-(naphthalen-2-yl)-4,7-dihydrotetrazolo[1,5-a]pyrimidine-6-carboxylate]	–	–	0%	9%	10%	33.5%
N#CC1=C(N)NC2=C(C(=O)CCC2)C1c1ccc(Br)cc1 (stereo not drawn) [PT-095, 2-amino-4-(4-bromophenyl)-5-oxo-1,4,5,6,7,8-hexahydroquinoline-3-carbonitrile]	–	–	0%	15%	10%	24.5%
CC1=C(C(=O)OCc2ccccc2)C(c2cccs2)n2nnnc2N1 (stereo not drawn) [PT-040, benzyl 5-methyl-7-(thiophen-2-yl)-4,7-dihydrotetrazolo[1,5-a]pyrimidine-6-carboxylate]	–	–	0%	18%	14.5%	24.5%
CCOC(=O)C1=C(C)NC(C)=C(C(=O)OCC)C1c1ccc2ccccc2c1 [PT-107, diethyl 2,6-dimethyl-4-(naphthalen-2-yl)-1,4-dihydropyridine-3,5-dicarboxylate]	–	–	10%	44%	11.5%	48%
CC1=C(C(=O)OC(C)C)C(c2ccc(Br)s2)C(C(=O)OC(C)C)=C(C)N1 [PT-124, diisopropyl 4-(5-bromothiophen-2-yl)-2,6-dimethyl-1,4-dihydropyridine-3,5-dicarboxylate]	–	–	10%	52%	11.5%	66%
CCOC(=O)C1=C(C)NC(C)=C(C(=O)OCC)C1c1cc2ccccc2s1 [PT-114, diethyl 4-(benzo[b]thiophen-2-yl)-2,6-dimethyl-1,4-dihydropyridine-3,5-dicarboxylate]	–	–	8%	15%	27.5%	86.5%
CCCC1=C(C(=O)OCC)C(c2ccsc2)C2=C(CC(c3ccccc3)CC2=O)N1 (stereo not drawn) [PT-149, ethyl 5-oxo-7-phenyl-2-propyl-4-(thiophen-3-yl)-1,4,5,6,7,8-hexahydroquinoline-3-carboxylate]	–	–	4%	72%	46%	90%
CC1=C(C(=O)OCc2ccccc2)C(c2cc3ccccc3o2)n2nnnc2N1 (stereo not drawn) [PT-045, benzyl 7-(benzofuran-2-yl)-5-methyl-4,7-dihydrotetrazolo[1,5-a]pyrimidine-6-carboxylate]	–	–	0%	98%	10%	70%
N#CC1=C(N)OC2=C(C(=O)CCC2)C1c1ccsc1 (stereo not drawn) [PT-100, 2-amino-5-oxo-4-(thiophen-3-yl)-5,6,7,8-tetrahydro-4H-chromene-3-carbonitrile]	–	–	0%	0%	10%	16.5%
CCOC(=O)C1=C(C)N(C)C(C)=C(C(=O)OCC)C1c1cccc2ccccc12 [PT-191, diethyl 1,2,6-trimethyl-4-(naphthalen-1-yl)-1,4-dihydropyridine-3,5-dicarboxylate]	–	–	12%	37%	26.5%	68%
CCOC(=O)C1=C(C)NC(C)=C(C(=O)OCC)C1c1cc2ccccc2o1 [PT-122, diethyl 4-(benzofuran-2-yl)-2,6-dimethyl-1,4-dihydropyridine-3,5-dicarboxylate]	–	–	10%	63%	15.5%	55%
